Source: patent US20130210804A1, “TRICYCLIC MGLUR5 RECEPTOR MODULATORS” (priority 2010, published 2013)
Read-outs that look alike come from different tables or passages of the source.

Target: T1, human mGluR5A (Homo sapiens, UniProt P41594)
T1 construct: expressed in transfected cells; host or cells: CHO (Chinese Hamster Ovary) cells, kept under Puromycin and Zeocin selection
Experiment: Fluorescent Ca2+ mobilization (FLIPR) assay, potentiation of a sub-threshold (EC20, 300 nM) glutamate response
Type: cell-based
Conditions: CHO cells expressing human mGluR5A, potentiation in the presence of 300 nM glutamate
Source text: The utility of the compounds in accordance with the present invention as positive allosteric modulators of metabotropic glutamate receptor activity, in particular mGluR5 activity, may be readily determined without undue experimentation by methodology well known in the art, including O'Brien et al., Molecular Pharmacology 2003, 64(3) 731-740. In particular, the compounds of the following examples had activity in reference assays by enhancing mGluR5 activity. […] Changes in intracellular Ca^2+ were measured with Fluo-4AM ester (Invitrogen/Molecular Probes), which was detected on a Fluorometric Imaging Plate Reader (FLIPR, Molecular Devices, Sunnyvale, Calif.). In a typical experiment the mGluR5 positive allosteric modulatory activity of the compounds of the present invention was determined in accordance with the following experimental method.
Chinese Hamster Ovary (CHO) cells expressing human mGluR5A were maintained in growth medium containing DMEM, 10% dialyzed Fetal Bovine Serum, 50 units/mL Penicillin, 50 ug/mL Streptomycin, 2 mM L-glutamine, 1×MEM non-essential amino acids, 1 mM sodium pyruvate, 25 mM HEPES, 55 uM 2-mercaptoethanol, 5 ug/mL Puromycin, and 250 ug/mL Zeocin at 37° C. and 5% CO2. The day before the experiment, the cells were washed and seeded in “plating media” containing only DMEM, 10% dialyzed Fetal Bovine Serum, 50 units/mL Penicillin, and 50 ug/mL Streptomycin at a density of 50,000 cells/well (100 uL/well) in black 384-well clear-bottom PDL-coated plates. The cells were grown overnight at 37° C. and 6% CO2. This overnight glutamine/glutamate starvation allowed for consistent expression of the mGluR5A receptor, and the ability to add a known amount of agonist (glutamate in most cases) on the day of the experiment.
The day of the experiment, the cells were washed with 37° C. Assay Buffer (Hanks Balanced Salt Solution with CaCl2 and MgCl2, 20 mM HEPES, 2.5 mM Probenecid, 0.1% BSA) with an automated plate washer (3×100 uL, aspiration 3 mm from bottom leaving ˜30 uL of buffer in each well). After washing, 30 uL of dye loading buffer (4 uM Fluo-4AM, 0.04% Pluronic acid, and 1% dialyzed FBS in assay buffer) were added to each well of the plates for 2 uM Fluo-4AM final concentration. The plates were incubated at 37° C. and 6% CO2 for 1 hour to allow for dye loading. After dye loading, the cells were washed again as above, and placed on the FLIPR. Assays were conducted with two possible scenarios: 1) To determine the potencies of the compounds, as either agonists of mGluR5 or potentiators of mGluR5 in the presence of a sub-threshold amount of glutamate, 10-point titrations of the compounds (1:3 dilution between each point, 30-0.0015 uM final concentrations) were added to the cells, followed by the addition of the EC20 of glutamate (300 nM) to the cells. 2) To determine the cooperativity of the compounds with the natural agonist (glutamate), single concentrations of the compounds were added to the cells, followed by the addition of a 10-point titration of glutamate (1:3 dilution between each point, 1000-0.05 uM final concentrations). […] For both scenarios above, operation of the FLIPR was the same. Baseline fluorescence was monitored for 10 seconds, followed by the addition of compounds diluted in Assay Buffer (1% DMSO concentration after this addition, 0.66% final DMSO concentration after agonist addition). After monitoring fluorescence for 5 minutes, during which time any intrinsic agonist activity of the compounds would have been detected, the agonist (glutamate) also diluted in assay buffer was then added to the cells. The response was then monitored for an additional 3 minutes. In scenario #1, the peak during the final 3 minutes was used for potentiator data, and the peak during the 5 minutes post compound addition was used for compound agonist data. […]

[1] = about/generally, read-out: EC50 for potentiating/enhancing the mGluR5 receptor in the FLIPR assay
[2] = inflection points, read-out: Representative FLIPR EC50 Values

T1 sequence (P41594 21-1180 isoform P41594-2 limits assumed): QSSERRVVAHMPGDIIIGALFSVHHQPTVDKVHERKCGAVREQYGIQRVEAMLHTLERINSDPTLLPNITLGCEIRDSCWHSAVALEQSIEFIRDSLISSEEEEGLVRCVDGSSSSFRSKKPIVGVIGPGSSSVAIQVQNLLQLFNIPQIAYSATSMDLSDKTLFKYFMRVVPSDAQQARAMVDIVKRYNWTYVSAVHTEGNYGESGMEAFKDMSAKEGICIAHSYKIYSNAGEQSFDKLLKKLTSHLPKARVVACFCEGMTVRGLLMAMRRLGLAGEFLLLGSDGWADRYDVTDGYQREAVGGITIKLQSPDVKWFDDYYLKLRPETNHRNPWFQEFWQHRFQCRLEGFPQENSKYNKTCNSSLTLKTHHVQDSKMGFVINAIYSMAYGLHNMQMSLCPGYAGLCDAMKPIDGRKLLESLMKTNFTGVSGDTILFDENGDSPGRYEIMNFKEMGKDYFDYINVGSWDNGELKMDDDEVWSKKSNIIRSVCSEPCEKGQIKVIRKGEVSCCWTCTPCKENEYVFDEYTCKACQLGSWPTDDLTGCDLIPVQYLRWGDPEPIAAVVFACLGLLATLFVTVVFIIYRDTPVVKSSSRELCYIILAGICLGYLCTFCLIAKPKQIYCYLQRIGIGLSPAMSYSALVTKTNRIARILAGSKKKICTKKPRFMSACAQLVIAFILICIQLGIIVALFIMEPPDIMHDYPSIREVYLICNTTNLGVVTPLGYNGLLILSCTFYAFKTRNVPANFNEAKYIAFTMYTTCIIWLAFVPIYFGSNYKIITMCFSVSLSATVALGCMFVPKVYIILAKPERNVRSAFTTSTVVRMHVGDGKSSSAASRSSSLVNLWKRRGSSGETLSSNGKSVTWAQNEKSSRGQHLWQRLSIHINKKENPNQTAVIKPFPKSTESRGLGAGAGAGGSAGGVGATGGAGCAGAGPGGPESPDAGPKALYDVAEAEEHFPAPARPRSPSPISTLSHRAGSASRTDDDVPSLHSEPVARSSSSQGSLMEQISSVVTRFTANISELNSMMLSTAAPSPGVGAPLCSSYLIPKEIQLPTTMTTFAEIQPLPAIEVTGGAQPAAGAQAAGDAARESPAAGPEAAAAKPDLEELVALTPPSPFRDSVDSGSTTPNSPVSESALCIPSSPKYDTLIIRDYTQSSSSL

Structure (SMILES): COc1ccc2c(n1)CC[C@@H]1CC[C@H](c3nc(-c4cc(Cl)c[nH]4)no3)CN1C2=O [Example 13-2, (8S,10aS)-8-[3-(4-chloro-1H-pyrrol-2-yl)-1,2,4-oxadiazol-5-yl]-2-methoxy-8,9,10,10a,11,12-hexahydrodipyrido[1,2-a:2′,3′-e]azepin-5(7H)-one]
- EC50 [1]: < 1000 nM

Structure (SMILES): O=C1c2ccc(F)cc2C(F)(F)C[C@@H]2CC[C@H](c3nc(-c4ccc(F)cn4)no3)CN12 (racemic) [Example 20-3, (±) cis-9,11,11-trifluoro-3-[3-(5-fluoropuridin-2-yl)-1,2-4-oxadiazol-5-yl]-1,3,4,11,12,12a-hexahydropyrido[1,2-b][2]benzazepin-6(2H)-one]
- EC50 [1]: < 1000 nM

Structure (SMILES): Cc1c[nH]c(-c2noc(C3CCC4C=Cc5ccccc5C(=O)N4C3)n2)c1 (racemic) [Example 7-7, (±) cis-(Z)-3-[3-(4-methyl-1H-pyrrol-2-yl)-1,2,4-oxadiazol-5-yl]-1,3,4,12a-tetrahydropyrido[1,2-b][2]benzazepin-6(2H)-one]
- EC50 [1]: < 1000 nM
- EC50 [2]: 31 nM

Structure (SMILES): Cc1c[nH]c(-c2noc([C@H]3CC[C@H]4CCc5ccccc5C(=O)N4C3)n2)c1 [Example 1-5, cis-(3S,12aS)-3-(3-(4-Methyl-1H-pyrrol-2-yl)-1,2,4-oxadiazol-5-yl)-1,3,4,11,12,12a-hexahydrobenzo[e]pyrido[1,2-a]azepin-6(2H)-one]
- EC50 [1]: < 1000 nM
- EC50 [2]: 16 nM

Structure (SMILES): N#Cc1ccc2c(c1)CCC1CCC(c3nc(-c4cc(Cl)c[nH]4)no3)CN1C2=O (racemic) [Example 18-1, (±) cis-9-cyano-3-[3-(4-chloro1H-pyrrol-2-yl)-1,2,4-oxadiazol-5-yl]-1,3,4,11,12,12a-hexahydropyrido[1,2-b][2]benzazepin-6(2H)-one]
- EC50 [1]: < 1000 nM
- EC50 [2]: 50 nM

Structure (SMILES): O=C1c2cnc(F)cc2CC[C@@H]2CC[C@H](c3noc(-c4ccc(F)cn4)n3)CN12 (single isomer, unassigned) [Example 24-6]
- EC50 [1]: < 1000 nM

Structure (SMILES): O=C1c2ccccc2OC[C@@H]2CC[C@H](c3nc(-c4cc(Cl)c[nH]4)no3)CN12 [Example 11-8, (6aS,9S)-9-[3-(4-chloro-1H-pyrrol-2-yl)-1,2,4-oxadiazol-5-yl]-6,6a,7,8,9,10-hexahydro-12H-pyrido[2,1-c][1,4]benzoxazepin-12-one]
- EC50 [1]: < 1000 nM
- EC50 [2]: 71 nM

Structure (SMILES): O=C1c2ccc(F)cc2CC[C@@H]2CC[C@H](c3nc(-c4cc(Cl)c[nH]4)no3)CN12 [Example 3-1, (3S,12aS)-9-Fluoro-3-[3-(4-chloro1H-pyrrol-2-yl)-1,2,4-oxadiazol-5-yl]-1,3,4,11,12,12a-hexahydropyrido[1,2-b][2]benzazepin-6(2H)-one]
- EC50 [1]: < 1000 nM
- EC50 [2]: 8 nM
